Data from patent US5302604A, “Cholesterol lowering compounds produced by directed biosynthesis” (Merck & Co., Inc., priority 1992, dated 1994).

Biological target: T1, Squalene Synthetase (Rattus norvegicus, UniProt Q02769)
T1 construct: from tissue; host or cells: liver microsomes (100,000×g pellet) of male Charles River CD rats fed 0.1% lovastatin for 4 days
T1 sequence (Q02769 1-416): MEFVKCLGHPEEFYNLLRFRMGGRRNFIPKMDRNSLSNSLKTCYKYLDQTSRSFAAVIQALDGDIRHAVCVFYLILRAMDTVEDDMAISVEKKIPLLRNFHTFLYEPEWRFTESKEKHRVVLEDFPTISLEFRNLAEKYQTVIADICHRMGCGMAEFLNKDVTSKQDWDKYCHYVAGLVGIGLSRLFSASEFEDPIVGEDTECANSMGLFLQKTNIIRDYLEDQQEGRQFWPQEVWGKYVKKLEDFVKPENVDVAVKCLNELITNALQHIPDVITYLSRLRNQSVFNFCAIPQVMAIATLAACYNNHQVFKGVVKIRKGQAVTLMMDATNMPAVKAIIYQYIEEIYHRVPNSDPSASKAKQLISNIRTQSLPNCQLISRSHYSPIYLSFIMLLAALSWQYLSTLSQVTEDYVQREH
Test: Squalene synthetase assay (in vitro inhibition, conversion of [4-^14 C]farnesyl-pyrophosphate)
Format: biochemical
Conditions: rat liver microsomes, 30° C., 20 minutes
Method: The intrinsic squalene synthetase inhibitory activity of representative compounds of this invention was measured by the standard in vitro protocol described below:
PREPARATION OF RAT LIVER MICROSOMES
Male, Charles River CD rats (120 to 150 g) were fed a diet containing 0.1% lovastatin for 4 days. The livers from these rats were homogenized in 5 volumes (mL/g) of ice cold 50 mM HEPES (4-(2-hydroxyethyl)-1-piperazine-ethanesulfonic acid), 5 mM EDTA (ethylenediaminetetraacetic acid) pH 7.5 with a Potter-Elvehjem type tissue grinder. The homogenate was centrifuged twice at 20,000×g for 15 min. at 4° C., discarding the pellet each time. The supernatant was then centrifuged at 100,000×g for 1 hr at 4° C. The resulting microsomal pellet was resuspended in a volume of the above homogenizing buffer equal to one-fifth the volume of the original homogenate. This microsomal preparation has a protein concentration of about 7 mg/mL. The microsomal suspensions were stored in aliquots at -70° C. Squalene synthetase activity in these aliquots is stable for a least several months.
Partial Purification of Prenyl Transferase
Prenyl transferase was purified to use in the enzymatic synthesis of radiolabelled farnesyl pyrophosphate. […]

SMILES: C=C(CCC12OC(C(=O)O)C(O)(C(=O)O)C(C(=O)O)(O1)C(OC(=O)/C=C/C(C)CC(C)CC)C2O)C(OC(C)=O)C(C)Cc1ccsc1 (stereo not shown)
- IC50: 0.201 nM
